Measurements published in patent publication US20060069132A1, “Azolecarboxamide herbicides” (priority 2004, published 2006).

Legend:
redroot pigweed = assay: Test A pre-/postemergence herbicide test; assay type: in vivo, Amaranthus retroflexus
Method in brief: (§1)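 Plants are held in greenhouse about ten days after treatment, then compared with untreated controls and scored 0 (no effect) to 100 (complete control). Preemergence dosing is a directed soil spray on sown sandy loam; postemergence dosing is spray to runoff at 2–10 cm height.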

woolly cupgrass = assay: Test C pre-/postemergence herbicide test; assay type: in vivo, Eriochloa villosa
Method in brief: (§2)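 Greenhouse-grown plants were evaluated visually 12 to 14 days after treatment, with 100 meaning complete control and 0 no effect. Application was preemergence, or postemergence at 2 to 18 cm.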

johnsongrass = assay: Test C pre-/postemergence herbicide test; assay type: in vivo, Sorghum halepense
Method in brief: as §2

yellow nutsedge = assay: Test C pre-/postemergence herbicide test; assay type: in vivo, Cyperus esculentus
Method in brief: as §2

giant foxtail = assay: Test A pre-/postemergence herbicide test; assay type: in vivo, Setaria faberi
Method in brief: as §1

large crabgrass = assay: Test A pre-/postemergence herbicide test; assay type: in vivo, Digitaria sanguinalis
Method in brief: as §1

lambsquarters = assay: Test C pre-/postemergence herbicide test; assay type: in vivo, Chenopodium album
Method in brief: as §2

barnyardgrass = assay: Test C flooded paddy test; assay type: in vivo, Echinochloa crus-galli; settings: for Plant response rating, Barnyardgrass: 500 g ai/ha, visual rating after 12 to 14 days
Method in brief: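 Weeds and wheat were sprayed after emergence, at a height of 2 to 18 cm (1–4 leaves), and paddy barnyardgrass was flooded and treated at two leaves. Assessment took place 12–14 days later in the greenhouse on a 0-to-100 visual control scale. A dash means no result was obtained.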

rice = assay: Test B pre-/postemergence herbicide test; assay type: in vivo, Oryza sativa; settings: preemergence
Method in brief: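 Test chemicals in a non-phytotoxic solvent mixture with surfactant were applied preemergence to seeded species and postemergence to plants 2-18 cm tall (1- to 4-leaf stage); rice and barnyardgrass were also tested in a flooded paddy at the 2-leaf stage. Visual rating versus controls after 13-15 days in greenhouse, scale 0 (no effect) to 100 (complete control).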

[1] = Postemergence, 500 g ai/ha, 0 to 100 scale, 0 no effect, 100 complete control
[2] = Postemergence, 2000 g ai/ha, 0 to 100 scale, 0 no effect, 100 complete control
[3] = Preemergence, 2000 g ai/ha, visual rating, 0 to 100 scale (0 no effect, 100 complete control)
[4] = preemergence, 500 g ai/ha, visual injury, 0 to 100 scale (0 no effect, 100 complete control)
[5] = 62 g ai/ha, preemergence, scale 0 to 100
[6] = 125 g ai/ha, scale 0 (no effect) to 100 (complete control), visual, 12 to 14 days, preemergence
[7] = 250 g ai/ha, scale 0-100, preemergence
[8] = 500 g ai/ha, scale 0 to 100 (0 no effect, 100 complete control), visual, 12 to 14 days, preemergence
[9] = 62 g ai/ha, scale 0 to 100 (0 no effect, 100 complete control)
[10] = 125 g ai/ha, scale 0 to 100 (0 no effect, 100 complete control)
[11] = 250 g ai/ha, scale of 0 to 100, 0 is no effect, 100 is complete control
[12] = scale 0 to 100 (0 no effect, 100 complete control)
[13] = 500 g ai/ha, visual rating, 0 = no effect, 100 = complete control
[14] = 31 g ai/ha, preemergence, scale 0 to 100
[15] = Postemergence, 500 g ai/ha, scale 0 to 100
[16] = Postemergence, 250 g ai/ha, scale 0 to 100, 0 no effect, 100 complete control
[17] = postemergence, 125 g ai/ha, scale 0 to 100
[18] = postemergence, 62 g ai/ha, scale 0 to 100

With `CCn1nc(C(C)(C)C)cc1C(=O)Nc1cncc(C(=O)N(C)C)n1` [Compound 287] the “Pigweed plant response rating” value (redroot pigweed; [1]) was 50, the “Plant response rating, Pigweed” value (redroot pigweed; [2]) was 80 and the “Pigweed plant response rating” value (redroot pigweed; [3]) was 100. The “Pigweed plant response rating” value (redroot pigweed; [4]) was 100, the “Plant response rating, Cupgrass, Woolly” value (woolly cupgrass; [5]) was 0 and the “Plant response rating, Cupgrass, Woolly” value (woolly cupgrass; [6]) was 0. For the same molecule, the “Plant response rating, Cupgrass, Woolly” value (woolly cupgrass; [7]) was 10, the “Plant response rating, Cupgrass, Woolly” value (woolly cupgrass; [8]) was 35 and the “Plant response rating, Johnsongrass” value (johnsongrass; [5]) was 55. The “Plant response rating, Johnsongrass” value (johnsongrass; [6]) was 85, the “Plant response rating, Johnsongrass” value (johnsongrass; [7]) was 95 and the “Plant response rating, Johnsongrass” value (johnsongrass; [8]) was 95. For the same molecule, the “Plant response rating, Nutsedge, Yellow” value (yellow nutsedge; [5]) was 0, the “Plant response rating, Nutsedge, Yellow” value (yellow nutsedge; [6]) was 15 and the “Plant response rating, Nutsedge, Yellow” value (yellow nutsedge; [7]) was 60. For the same molecule, the “Plant response rating, Nutsedge, Yellow” value (yellow nutsedge; [8]) was 85, the “Foxtail, Giant plant response rating” value (giant foxtail; [1]) was 40 and the “Plant response rating, Foxtail, Giant” value (giant foxtail; [2]) was 90. The “Foxtail, Giant plant response rating” value (giant foxtail; [3]) was 100, the “Foxtail, Giant plant response rating” value (giant foxtail; [4]) was 65 and the “Crabgrass, Large plant response rating” value (large crabgrass; [1]) was 10. For the same molecule, the “Plant response rating, Crabgrass, Large” value (large crabgrass; [2]) was 60, the “Crabgrass, Large plant response rating” value (large crabgrass; [3]) was 100 and the “Crabgrass, Large plant response rating” value (large crabgrass; [4]) was 75. For the same molecule, the “Plant response rating, Lambsquarters” value (lambsquarters; [5]) was 100, the “Plant response rating, Lambsquarters” value (lambsquarters; [6]) was 100 and the “Plant response rating, Lambsquarters” value (lambsquarters; [7]) was 100. The “Plant response rating, Lambsquarters” value (lambsquarters; [8]) was 100, the “Barnyardgrass plant response rating” value (barnyardgrass; [9]) was 0 and the “Barnyardgrass plant response rating” value (barnyardgrass; [10]) was 0. The “Barnyardgrass plant response rating” value (barnyardgrass; [11]) was 0, the “Plant response rating, Barnyardgrass” value (barnyardgrass; [12]) was 25 and the “Rice plant response rating (0 to 100 scale)” value (rice; 125 g ai/ha, 0 = no effect, 100 = complete control) was 80. The “Plant response rating, Rice” value (rice; [13]) was 90.

For `CCC(=NO)c1cccc(NC(=O)c2cc(C(C)(C)C)nn2C)c1` [Compound 118], the “Plant response rating, Cupgrass, Woolly” value (woolly cupgrass; [14]) was 0, the “Plant response rating (0 = no effect, 100 = complete control), Cupgrass, Woolly” value (woolly cupgrass; 62 g ai/ha, preemergence) was 0 and the “Plant response rating, Cupgrass, Woolly” value (woolly cupgrass; [6]) was 0. For the same molecule, the “Plant response rating, Johnsongrass” value (johnsongrass; [14]) was 30, the “Plant response rating (0 = no effect, 100 = complete control), Johnsongrass” value (johnsongrass; 62 g ai/ha, preemergence) was 40 and the “Plant response rating, Johnsongrass” value (johnsongrass; [6]) was 100. The “Plant response rating, Nutsedge, Yellow” value (yellow nutsedge; 16 g ai/ha, scale 0 to 100, last section of Table C, preemergence) was 0, the “Plant response rating, Nutsedge, Yellow” value (yellow nutsedge; [14]) was 0 and the “Plant response rating (0 = no effect, 100 = complete control), Nutsedge, Yellow” value (yellow nutsedge; 62 g ai/ha, preemergence) was 0. For the same molecule, the “Plant response rating, Nutsedge, Yellow” value (yellow nutsedge; [6]) was 0, the “Plant response rating, Lambsquarters” value (lambsquarters; [14]) was 50 and the “Plant response rating (0 = no effect, 100 = complete control), Lambsquarters” value (lambsquarters; 62 g ai/ha, preemergence) was 50. The “Plant response rating, Lambsquarters” value (lambsquarters; [6]) was 60, the “Barnyardgrass plant response rating” value (barnyardgrass; [9]) was 0 and the “Barnyardgrass plant response rating” value (barnyardgrass; 125 g ai/ha, scale of 0 to 100, 0 is no effect, 100 is complete control) was 20. The “Barnyardgrass plant response rating” value (barnyardgrass; [11]) was 20, the “Plant response rating, Barnyardgrass” value (barnyardgrass; [12]) was 50 and the “Plant response rating, Rice” value (rice; 125 g ai/ha, 0 to 100 scale, 0 is no effect, 100 is complete control) was 0.

With `CCn1nc(C(C)(C)C)cc1C(=O)Nc1cccc(OC(F)(F)C(F)F)c1` [Compound 333] the “Plant response rating, Cupgrass, Woolly” value (woolly cupgrass; [5]) was 0, the “Plant response rating, Cupgrass, Woolly” value (woolly cupgrass; [6]) was 0 and the “Plant response rating, Cupgrass, Woolly” value (woolly cupgrass; [7]) was 0. For the same molecule, the “Plant response rating, Cupgrass, Woolly” value (woolly cupgrass; [8]) was 30, the “Cupgrass, Woolly plant response rating” value (woolly cupgrass; [15]) was 10 and the “Plant response rating, Cupgrass, Woolly” value (woolly cupgrass; [16]) was 5. For the same molecule, the “Plant response rating, Cupgrass, Woolly” value (woolly cupgrass; [17]) was 0, the “Plant response rating, Cupgrass, Woolly” value (woolly cupgrass; [18]) was 0 and the “Plant response rating, Johnsongrass” value (johnsongrass; [5]) was 0. The “Plant response rating, Johnsongrass” value (johnsongrass; [6]) was 0, the “Plant response rating, Johnsongrass” value (johnsongrass; [7]) was 5 and the “Plant response rating, Johnsongrass” value (johnsongrass; [8]) was 5. For the same molecule, the “Johnsongrass plant response rating” value (johnsongrass; [15]) was 0, the “Plant response rating, Johnsongrass” value (johnsongrass; [16]) was 0 and the “Plant response rating, Johnsongrass” value (johnsongrass; [17]) was 0. For the same molecule, the “Plant response rating, Johnsongrass” value (johnsongrass; [18]) was 0, the “Plant response rating, Nutsedge, Yellow” value (yellow nutsedge; [5]) was 0 and the “Plant response rating, Nutsedge, Yellow” value (yellow nutsedge; [6]) was 0. For the same molecule, the “Plant response rating, Nutsedge, Yellow” value (yellow nutsedge; [7]) was 0, the “Plant response rating, Nutsedge, Yellow” value (yellow nutsedge; [8]) was 0 and the “Nutsedge, Yellow plant response rating” value (yellow nutsedge; [15]) was 0. The “Plant response rating, Nutsedge, Yellow” value (yellow nutsedge; [16]) was 0, the “Plant response rating, Nutsedge, Yellow” value (yellow nutsedge; [17]) was 0 and the “Plant response rating, Nutsedge, Yellow” value (yellow nutsedge; [18]) was 0. For the same molecule, the “Plant response rating, Lambsquarters” value (lambsquarters; [5]) was 95, the “Plant response rating, Lambsquarters” value (lambsquarters; [6]) was 100 and the “Plant response rating, Lambsquarters” value (lambsquarters; [7]) was 100. The “Plant response rating, Lambsquarters” value (lambsquarters; [8]) was 100, the “Lambsquarters plant response rating” value (lambsquarters; [15]) was 100 and the “Plant response rating, Lambsquarters” value (lambsquarters; [16]) was 80. The “Plant response rating, Lambsquarters” value (lambsquarters; [17]) was 80, the “Plant response rating, Lambsquarters” value (lambsquarters; [18]) was 60 and the “Barnyardgrass plant response rating” value (barnyardgrass; [9]) was 0. For the same molecule, the “Barnyardgrass plant response rating” value (barnyardgrass; [10]) was 0, the “Barnyardgrass plant response rating” value (barnyardgrass; [11]) was 10 and the “Plant response rating, Barnyardgrass” value (barnyardgrass; [12]) was 20. For the same molecule, the “Plant response rating (0 to 100 scale), Rice” value (rice; 125 g ai/ha, 0 is no effect, 100 is complete control) was 0 and the “Plant response rating, Rice” value (rice; [13]) was 0.
